Assay results: patent US10005741B2, “Therapeutic compounds” (ARIZONA BOARD OF REGENTS ON BEHALF OF ARIZONA STATE …, priority 2014, dated 2018)

System: not given
Test: not given
Settings: not given

Compound	melting point [°C]
CCN(c1ccc2c(c1)C(C)(C)CCC2(C)C)c1cnc(C(=O)O)cn1 [Compound A58, 5-(ethyl(5,5,8,8-tetramethyl-5,6,7,8-tetrahydronaphthalen-2-yl)amino)pyrazine-2-carboxylic acid]	213.1 to 214.4
CCN(c1ncc(C(=O)O)cn1)c1cc2c(cc1C)C(C)(C)CCC2(C)C [Compound A57, 2-(ethyl(3,5,5,8,8-pentamethyl-5,6,7,8-tetrahydronaphthalen-2-yl)amino)pyrimidine-5-carboxylic acid]	231.9 to 233.1
CCN(c1cnc(C(=O)O)cn1)c1cc2c(cc1C)C(C)(C)CCC2(C)C [Compound A59, 5-(ethyl(3,5,5,8,8-pentamethyl-5,6,7,8-tetrahydronaphthalen-2-yl)amino)pyrazine-2-carboxylic acid]	203.6 to 205.1

Results, then the compound that gave them:

melting point [°C]	Compound
252.4 to 256.8	CCN(c1ccc(C(=O)O)c(F)c1)c1ccc2c(c1)C(C)(C)CCC2(C)C [Compound A62, 4-(ethyl(5,5,8,8-tetramethyl-5,6,7,8-tetrahydronaphthalen-2-yl)amino)-2-fluorobenzoic acid]
247.8 to 250.6	CCN(c1ccc(C(=O)O)cc1)c1ccc2c(c1)C(C)(C)CCC2(C)C [Compound A63, 4-(ethyl(5,5,8,8-tetramethyl-5,6,7,8-tetrahydronaphthalen-2-yl)amino)benzoic acid]
241.4 to 243.8	CCN(c1ccc(C(=O)O)c(F)c1)c1cc2c(cc1C)C(C)(C)CCC2(C)C [Compound A60, 4-(ethyl(3,5,5,8,8-pentamethyl-5,6,7,8-tetrahydronaphthalen-2-yl)amino)-2-fluorobenzoic acid]
252.4 to 256.8	CCN(c1ccc(C(=O)O)cc1)c1cc2c(cc1C)C(C)(C)CCC2(C)C [Compound A61, 4-(ethyl(3,5,5,8,8-pentamethyl-5,6,7,8-tetrahydronaphthalen-2-yl)amino)benzoic acid]

Molecular target: T1, human RXR (Homo sapiens, UniProt P19793)
T1 construct: expressed in transfected cells; host or cells: HCT-116 cells
T1 sequence (P19793 1-462) 1: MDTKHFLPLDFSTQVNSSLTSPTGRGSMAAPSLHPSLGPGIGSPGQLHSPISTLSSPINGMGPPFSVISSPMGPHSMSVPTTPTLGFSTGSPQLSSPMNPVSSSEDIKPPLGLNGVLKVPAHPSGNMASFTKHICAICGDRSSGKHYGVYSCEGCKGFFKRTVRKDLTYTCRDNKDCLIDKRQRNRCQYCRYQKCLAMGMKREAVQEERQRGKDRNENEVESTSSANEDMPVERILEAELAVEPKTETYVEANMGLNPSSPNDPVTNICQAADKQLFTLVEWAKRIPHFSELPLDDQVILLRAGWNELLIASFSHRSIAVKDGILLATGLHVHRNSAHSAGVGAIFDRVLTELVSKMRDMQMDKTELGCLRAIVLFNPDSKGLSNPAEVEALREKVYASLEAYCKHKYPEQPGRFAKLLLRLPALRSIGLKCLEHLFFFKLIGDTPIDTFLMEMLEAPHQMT
T1 sequence (P19793 1-462) 2: T1 sequence (P19793 1-462) 1
Test: Test A: RXR mammalian two-hybrid luciferase assay in transfected HCT-116 cells
Type: cell-based
Settings: RXR mammalian two-hybrid system, luciferase reporter, 24 hours treatment, dose-response 1x10^-9 to 0.3x10^-5 M
Procedure: HCT-116 cells were plated overnight at 80,000 cells/well in a 24 well plate and maintained as described above. The cells were co-transfected using a human RXR binding domain (BD) vector, a human RXR activation domain (AD) vector, a luciferase reporter gene containing BD-binding sites and renilla control plasmid. Transfection was achieved via 2 μL/well of Express-IN transfection reagent which was allowed to incubate for 24 hours with the cells. […] The amount of rexinoid activity at each concentration was measured using the same luciferase assay described above, and EC50 values were derived from dose-response curves of ligand concentration versus normalized luciferase activity.

Compound	EC50 [nM]
Cc1cc2c(cc1-c1cncc(/C=C/C(=O)O)c1)C(C)(C)CCC2(C)C [Compound A45, (E)-3-(5-(3,5,5,8,8-pentamethyl-5,6,7,8-tetrahydronaphthalen-2-yl)pyridin-3-yl)acrylic acid]	710
Cc1cnc(/C=C/C(=O)O)cc1-c1cc2c(cc1C)C(C)(C)CCC2(C)C [Compound A42]	3.7
Cc1cc2c(cc1-c1nc(/C=C/C(=O)O)ccc1C)C(C)(C)CCC2(C)C [Compound A46, (E)-3-(5-methyl-6-(3,5,5,8,8-pentamethyl-5,6,7,8-tetrahydronaphthalen-2-yl)pyridin-2-yl)acrylic acid]	305
Cc1cc2c(cc1-n1c(C(F)(F)F)nc3cc(C(=O)O)ccc31)C(C)(C)CCC2(C)C [Compound A48]	20
